Measured values as given in patent publication US4315026A, “Alkylpolyoxysulfinyl and alkylpolythiosulfinyl derivatives of carbamate esters” (priority 1980, dated 1982).

Assay: Mammalian toxicity, oral, Swiss white mice (LD50)
Type: in vivo
Conditions: mouse, in vivo, propylene glycol carrier
Method: For mice toxicity, the compound was dissolved in propyleneglycol or corn oil as a carrier and all compounds were tested at the level up to 1,000 mg/kg. All of the above noted compounds tested were lower in toxicity as compared with the parent compounds.
Mammalian toxicity was determined against Swiss white mice.

## CSC(C)=NOC(=O)N(C)S(=O)OC1COC(c2ccccc2)OC1 (stereo not drawn) [X, S-Methyl N-(2-phenyl-1,3-dioxane-5-ylmethoxysulfinyl)N-methylcarbamoyloxythioacetimidate]
  LD50: 85 mg/kg

## C=CCOCC(COS(=O)N(C)C(=O)Oc1cccc(C)c1)OS(=O)N(C)C(=O)Oc1cccc(C)c1 (stereo not drawn) [XIX, N,N'-(3-Allyloxy-1,2-propanedioxysulfinyl)-bis (3-methylphenyl methylcarbamate)]
  LD50: > 1000 mg/kg

## CSC(C)=NOC(=O)N(C)S(=O)OCC(COS(=O)N(C)C(=O)ON=C(C)SC)OS(=O)N(C)C(=O)ON=C(C)SC (stereo not drawn) [XV, N,N',N",-(1,2,3-Propanetrioxysulfinyl)-tris (S-methyl N-methylcarbamoyloxythioacetimidate)]
  LD50: 50 to 100 mg/kg

## Cc1cccc(OC(=O)N(C)S(=O)OCC2COC(C)(C)O2)c1 (stereo not drawn) [XX, 3-Methylphenyl N-(2,2-dimethyl-1,3-dioxolane-5-ylmethoxysulfinyl)-N-methylcarbamate]
  LD50: > 1000 mg/kg

## C=CCOC(COS(=O)N(C)C(=O)Oc1cccc(C)c1)COS(=O)N(C)C(=O)Oc1cccc(C)c1 (stereo not drawn) [XXI, N,N'-(2-Allyloxy-1,3-propanedioxysulfinyl)-bis (3-methylphenyl methylcarbamate)]
  LD50: > 1000 mg/kg

## Cc1cccc(OC(=O)N(C)S(=O)OCC(COCc2ccccc2)OS(=O)N(C)C(=O)Oc2cccc(C)c2)c1 (stereo not drawn) [XXII, N,N'-(3-Benzyloxy-1,2-propanedioxysulfinyl)-bis (3-methylphenyl methylcarbamate)]
  LD50: > 1000 mg/kg

## Cc1cccc(OC(=O)N(C)S(=O)OCC(COC(C)C)OS(=O)N(C)C(=O)Oc2cccc(C)c2)c1 (stereo not drawn) [XXIII, N,N'-(3-Isopropoxy-1,2-propanedioxysulfinyl)-bis (3-methyl-phenyl methylcarbamate)]
  LD50: > 1000 mg/kg

## Cc1cccc(OC(=O)N(C)S(=O)OCC23OCC4OC(C)(C)OC4C2OC(C)(C)O3)c1 (stereo not drawn) [XXIV, 3-Methylphenyl N-(2,3,4,5-di-O-isopropylidene-1-α-O-fructopyranosylsulfinyl)-N-methylcarbamate]
  LD50: > 1000 mg/kg

## Cc1cccc(OC(=O)N(C)S(=O)OC2C3OC(C)(C)OC3COC23COC(C)(C)O3)c1 (stereo not drawn) [XXV, 3-Methylphenyl N-(1,2,4,5-di-O-isopropylidene-3-O-fructopyranosylsulfinyl)-N-methylcarbamate]
  LD50: > 1000 mg/kg

## Cc1cccc(OC(=O)N(C)S(=O)OC2C(C3COC(C)(C)O3)OC3OC(C)(C)OC32)c1 (stereo not drawn) [XXVI, 3-Methylphenyl N-(1,2,5,6-di-O-isopropylidene-3-O-glucofuranosylsulfinyl)-N-methylcarbamate]
  LD50: > 1000 mg/kg

## CSC(=NOC(=O)N(C)S(=O)OCC(COCc1ccccc1)OS(=O)N(C)C(=O)ON=C(SC)C(=O)N(C)C)C(=O)N(C)C (stereo not drawn) [XXXI, N,N'-(3-Benzyloxy-1,2-propanedioxysulfinyl)-bis-[S-methylcarbamoyloxy-2-(N',N'-dimethylamino)-2-oxoethanimidothioate]]
  LD50: 12.5 to 25 mg/kg

## CSC(=NOC(=O)N(C)S(=O)OCC(COC(C)C)OS(=O)N(C)C(=O)ON=C(SC)C(=O)N(C)C)C(=O)N(C)C (stereo not drawn) [XXXII, N,N'-(3-Isopropoxy-1,2-propanedioxysulfinyl)-bis[S-methyl N-methylcarbamoyloxy-2-(N',N'-dimethylamino)-2-oxoethanimidothioate]]
  LD50: 16 mg/kg

## CC(C)OCC(COS(=O)N(C)C(=O)Oc1cccc2ccccc12)OS(=O)N(C)C(=O)Oc1cccc2ccccc12 (stereo not drawn) [XXXIX, N,N'-(3-Isopropoxy-1,2-propanedioxysulfinyl)-bis(1-naphthyl methylcarbamate)]
  LD50: > 1000 mg/kg

## C=CCOCC(COS(=O)N(C)C(=O)Oc1cccc2ccccc12)OS(=O)N(C)C(=O)Oc1cccc2ccccc12 (stereo not drawn) [XXXVI, N,N'-(3-Allyloxy-1,2-propanedioxysulfinyl)-bis(1-naphthyl methylcarbamate)]
  LD50: > 1000 mg/kg

## C=CCOC(COS(=O)N(C)C(=O)Oc1cccc2ccccc12)COS(=O)N(C)C(=O)Oc1cccc2ccccc12 (stereo not drawn) [XXXVII, N,N'-(2-Allyloxy-1,3-propanedioxysulfinyl)-bis(1-naphthyl methylcarbamate)]
  LD50: > 1000 mg/kg
